Test [1] addresses T1, FSHR (Homo sapiens, UniProt P23945).
T1 construct: expressed in transfected cells; host or cells: CHO (Cho-FSHR-LUC-1-1-43)
T1 sequence (P23945 18-695): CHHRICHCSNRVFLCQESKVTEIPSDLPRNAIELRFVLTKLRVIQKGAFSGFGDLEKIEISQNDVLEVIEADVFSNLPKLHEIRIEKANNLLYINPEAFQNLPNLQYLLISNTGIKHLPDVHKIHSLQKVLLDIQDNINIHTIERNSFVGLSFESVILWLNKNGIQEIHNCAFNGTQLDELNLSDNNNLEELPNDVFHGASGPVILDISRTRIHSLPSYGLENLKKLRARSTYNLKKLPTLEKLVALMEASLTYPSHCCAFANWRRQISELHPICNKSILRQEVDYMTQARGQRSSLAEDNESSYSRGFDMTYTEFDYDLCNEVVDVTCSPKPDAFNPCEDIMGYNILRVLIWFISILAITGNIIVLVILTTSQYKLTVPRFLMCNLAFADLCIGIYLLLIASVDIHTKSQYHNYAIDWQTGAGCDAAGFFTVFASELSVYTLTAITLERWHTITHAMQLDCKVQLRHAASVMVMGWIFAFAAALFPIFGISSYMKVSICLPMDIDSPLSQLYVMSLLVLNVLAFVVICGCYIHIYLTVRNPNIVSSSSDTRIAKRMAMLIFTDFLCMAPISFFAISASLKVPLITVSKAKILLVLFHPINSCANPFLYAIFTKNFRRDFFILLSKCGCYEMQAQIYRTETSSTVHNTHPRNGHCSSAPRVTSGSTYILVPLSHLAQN
Kind of test: EC50 of cyclic AMP production in CHO FSHR cells + EC20 FSH (Assay A). The class given is cell-based. The essentials: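 cAMP HTRF read-out (665 nm/620 nm ratio) after 1 h at 37° C of Cho-FSHR-LUC cells treated with serially diluted test compound plus EC20 FSH ([…]) and IBMX (final 200 μM). Responses given as percent of maximal FSH-standard effect.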

The target in test [2] is T2, follicle-stimulating hormone (FSH) receptor (Rattus norvegicus, UniProt P20395).
T2 construct: endogenous in cells; host or cells: primary rat granulosa cells
T2 sequence (P20395 18-692): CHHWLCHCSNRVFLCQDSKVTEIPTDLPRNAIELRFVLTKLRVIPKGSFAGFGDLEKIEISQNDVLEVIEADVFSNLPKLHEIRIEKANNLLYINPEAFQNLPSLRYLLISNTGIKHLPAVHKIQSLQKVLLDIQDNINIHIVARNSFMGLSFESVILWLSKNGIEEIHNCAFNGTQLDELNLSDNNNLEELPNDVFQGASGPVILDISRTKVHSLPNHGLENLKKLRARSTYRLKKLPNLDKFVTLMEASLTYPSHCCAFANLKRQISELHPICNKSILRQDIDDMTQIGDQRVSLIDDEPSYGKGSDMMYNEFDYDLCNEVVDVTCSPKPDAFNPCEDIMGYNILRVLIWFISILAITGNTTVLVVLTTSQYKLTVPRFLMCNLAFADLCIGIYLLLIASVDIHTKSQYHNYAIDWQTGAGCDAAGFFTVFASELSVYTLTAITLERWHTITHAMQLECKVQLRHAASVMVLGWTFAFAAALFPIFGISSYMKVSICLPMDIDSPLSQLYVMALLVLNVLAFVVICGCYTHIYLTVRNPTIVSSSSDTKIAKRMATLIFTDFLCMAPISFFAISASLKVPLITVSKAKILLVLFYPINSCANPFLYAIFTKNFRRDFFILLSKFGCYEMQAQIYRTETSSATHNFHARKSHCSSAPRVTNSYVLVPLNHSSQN
Kind of test: Rat granulosa EC50 FSH (Assay B). The class given is cell-based. Conditions: rat granulosa cells; read-out: Assay B: Rat granulosa EC50 FSH. The method, then:
Rat Granulosa EC50 FSH (Assay B)
The assay was performed pursuant to the teaching of Yanofsky et al. (2006) Allosteric activation of the follicle-stimulating hormone (FSH) receptor by selective, nonpeptide agonists (JBC 281(19): 13226-13233, which is incorporated by reference in the disclosure of the invention).

The mark [3] stands for this setting: CHO FSHR cells + EC20 FSH, cAMP HTRF, read-out: Assay A: EC50 of cyclic AMP production.

pEC50: −log10 of the molar value. Like-named read-outs stand apart in the source and are kept apart here.

Regarding `COc1cc2c(cc1-c1cnn(CC3OCCO3)c1)-c1c(c(C(=O)N3CCOCC3(C)C)nn1-c1ccsc1)CO2` [Compound 209, (3,3-Dimethyl-morpholin-4-yl)-[8-(1-[1,3]dioxolan-2-ylmethyl-1H-pyrazol-4-yl)-7-methoxy-1-thiophen-3-yl-1,4-dihydro-chromeno[4,3-c]pyrazol-3-yl]-methanone], the pEC50 in test [1] (setting [3]) and in test [2] was over 7.00 throughout.

In the case of `COc1cc2c(cc1CC(C)C)-c1c(c(C(=O)N(C)C(C)(C)C)nn1-c1cccs1)CO2` [Compound 91, 8-Isobutyl-7-methoxy-1-thiophen-2-yl-1,4-dihydro-chromeno[4,3-c]pyrazole-3-carboxylic Acid tert-butyl-methyl-amide], the values for the pEC50 in test [1] (setting [3]) and in test [2] were over 7.00 and 5.30 to 6.00, respectively. For the molecule `[2H]C([2H])([2H])N(CCN1CCOC1=O)C(=O)c1nn(-c2ccsc2)c2c1COc1cc(OC)c(CC(C)C)cc1-2` [Compound 214], the negative logarithm of the EC50 (pEC50) in test [1] (setting [3]) was over 7.00; in test [2], 5.30 to 6.00. On to `COc1cc2c(cc1-c1ccn(C)c1)-c1c(c(C(=O)NC3(CCO)COC3)nn1-c1ccsc1)CO2` [Compound 186, 7-Methoxy-8-(1-methyl-1H-pyrrol-3-yl)-1-thiophen-3-yl-1,4-dihydro-chromeno[4,3-c]pyrazole-3-carboxylic acid [3-(2-hydroxy-ethyl)-oxetan-3-yl]-amide], for which the pEC50 in test [1] (setting [3]) is over 7.00; in test [2], 6.00 to 7.00. For the molecule `COc1cc2c(cc1-c1c[nH]nc1C)-c1c(c(C(=O)N3CCOCC3(C)C)nn1-c1ccsc1)CO2` [Compound 95, (3,3-Dimethyl-morpholin-4-yl)-[7-methoxy-8-(3-methyl-1H-pyrazol-4-yl)-1-thiophen-3-yl-1,4-dihydro-chromeno[4,3-c]pyrazol-3-yl]-methanone], the results for the pEC50 in test [1] (setting [3]) and in test [2] were over 7.00 and 6.00 to 7.00, respectively. With `COc1cc2c(cc1C1=CCOC1)-c1c(c(C(=O)N(C)C(C)(C)C)nn1-c1ccsc1)CO2` [Compound 151, 8-(2,5-Dihydro-furan-3-yl)-7-methoxy-1-thiophen-3-yl-1,4-dihydro-chromeno[4,3-c]pyrazole-3-carboxylic acid tert-butyl-methyl-amide], the pEC50 in test [1] (setting [3]) was over 7.00; in test [2], 6.00 to 7.00. As to `[2H]C([2H])([2H])OCC1(N(C(=O)c2nn(-c3ccsc3)c3c2COc2cc(OC)c(-c4ccn(C)n4)cc2-3)C([2H])([2H])[2H])COC1` [Compound 114], the figures for the pEC50 in test [1] (setting [3]) and in test [2] were over 7.00 and 5.30 to 6.00, respectively.

Turning to `COc1cc2c(cc1C=C(C)C)-c1c(c(C(=O)N(C)C(C)(C)C)nn1-c1ccsc1)CO2` [Compound 6, 7-Methoxy-8-(2-methyl-propenyl)-1-thiophen-3-yl-1,4-dihydro-chromeno[4,3-c]pyrazole-3-carboxylic Acid tert-butyl-methyl-amide], the pEC50 in test [1] (setting [3]) was over 7.00; in test [2] it was 5.30 to 6.00. In the case of `COc1cc2c(cc1OC(C)C)-c1c(c(C(=O)N3CCCC(C(=O)N4CCC4)CC3)nn1-c1ccsc1)CO2` (stereo not drawn) [Compound 26, [4-(Azetidine-1-carbonyl)-azepan-1-yl]-(8-isopropoxy-7-methoxy-1-thiophen-3-yl-1,4-dihydro-chromeno[4,3-c]pyrazol-3-yl)-methanone], the pEC50 in test [1] (setting [3]) is 5.30 to 6.00; in test [2], under 5.30.

For `COc1cc2c(cc1C=C(C)C)-c1c(c(C(=O)N3CCOCC3(C)C)nn1-c1ccsc1)CO2` [Compound 39, (3,3-Dimethyl-morpholin-4-yl)-[7-methoxy-8-(2-methyl-propenyl)-1-thiophen-3-yl-1,4-dihydro-chromeno[4,3-c]pyrazol-3-yl]-methanone], the pEC50 in test [1] (setting [3]) was over 7.00. Take `COc1cc2c(cc1C1=CCCN(C)C1)-c1c(c(C(=O)N(C)C(C)(C)C)nn1-c1ccsc1)CO2` [Compound 134, 7-Methoxy-8-(1-methyl-1,2,5,6-tetrahydro-pyridin-3-yl)-1-thiophen-3-yl-1,4-dihydro-chromeno[4,3-c]pyrazole-3-carboxylic acid tert-butyl-methyl-amide]: the negative logarithm of the EC50 (pEC50) in test [1] (setting [3]) is 6.00 to 7.00.

As for `COc1cc2c(cc1C=C(C)C)-c1c(c(C(=O)N3CCC[C@H](C(=O)N4CCC4)CC3)nn1-c1ccsc1)CO2` [Compound 46, [(S)-4-(Azetidine-1-carbonyl)-azepan-1-yl]-[7-methoxy-8-(2-methyl-propenyl)-1-thiophen-3-yl-1,4-dihydro-chromeno[4,3-c]pyrazol-3-yl]-methanone], the pEC50 in test [1] (setting [3]) is 5.30 to 6.00.

As for `[2H]C([2H])([2H])N(CCCN(C(=O)C1CCC1)C([2H])([2H])[2H])C(=O)c1nn(-c2ccsc2)c2c1COc1cc(OC)c(C=C(C)C)cc1-2` [Compound 69], in test [1] (setting [3]), the pEC50 is 6.00 to 7.00. For the molecule `COCC(C)(C)N(C)C(=O)c1nn(-c2ccsc2)c2c1COc1cc(OC)c(C=C(C)C)cc1-2` [Compound 31], in test [1], the pEC50 is over 7.00. Regarding `COc1cc2c(cc1-c1cc(C)n(C)c1C)-c1c(c(C(=O)N3CCOCC3(C)C)nn1-c1ccsc1)CO2` [Compound 120, (3,3-Dimethyl-morpholin-4-yl)-[7-methoxy-1-thiophen-3-yl-8-(1,2,5-trimethyl-1H-pyrrol-3-yl)-1,4-dihydro-chromeno[4,3-c]pyrazol-3-yl]-methanone], the pEC50 in test [1] (setting [3]) was over 7.00. For the molecule `COc1cc2c(cc1-c1c(C)cnn1C)-c1c(c(C(=O)N(C)C(C)(C)C)nn1-c1ccsc1)CO2` [Compound 76, 8-(2,4-Dimethyl-2H-pyrazol-3-yl)-7-methoxy-1-thiophen-3-yl-1,4-dihydro-chromeno[4,3-c]pyrazole-3-carboxylic acid tert-butyl-methyl-amide], in test [1] (setting [3]), the pEC50 is over 7.00. Consider `[2H]C([2H])([2H])OC1CCN(C(=O)c2nn(-c3ccsc3)c3c2COc2cc(OC)c(C=C(C)C)cc2-3)C1` (stereo not drawn) [Compound 49], for which the pEC50 in test [1] (setting [3]) is 6.00 to 7.00. Consider `COc1cc2c(cc1-c1ccn(C)n1)-c1c(c(C(=O)N3CCCC34COC4)nn1-c1ccsc1)CO2` [Compound 174, [7-Methoxy-8-(1-methyl-1H-pyrazol-3-yl)-1-thiophen-3-yl-1,4-dihydro-chromeno[4,3-c]pyrazol-3-yl]-(2-oxa-5-aza-spiro[3.4]oct-5-yl)-methanone], for which the pEC50 in test [1] (setting [3]) was 6.00 to 7.00. On to `COc1cc2c(cc1-c1ccn(C)c1)-c1c(c(C(=O)NC(C)(CO)CO)nn1-c1ccsc1)CO2` [Compound 179, 7-methoxy-8-(1-methyl-1H-pyrrol-3-yl)-1-thiophen-3-yl-1,4-dihydro-chromeno[4,3-c]pyrazole-3-carboxylic acid (2-hydroxy-1-hydroxymethyl-1-methyl-ethyl)-amide], for which, in test [1] (setting [3]), the pEC50 was 6.00 to 7.00. Take `COc1cc2c(cc1-c1cc[nH]n1)-c1c(c(C(=O)N(C)C(C)(C)C)nn1-c1ccsc1)CO2` [Compound 65, 7-Methoxy-8-(1H-pyrazol-3-yl)-1-thiophen-3-yl-1,4-dihydro-chromeno[4,3-c]pyrazole-3-carboxylic acid tert-butyl-methyl-amide]: the pEC50 in test [1] (setting [3]) was over 7.00. Take `COc1cc2c(cc1S(=O)(=O)C1CC1)-c1c(c(C(=O)N3CCOCC3(C)C)nn1-c1ccsc1)CO2` [Compound 106, (8-Cyclopropanesulfonyl-7-methoxy-1-thiophen-3-yl-1,4-dihydro-chromeno[4,3-c]pyrazol-3-yl)-(3,3-dimethyl-morpholin-4-yl)-methanone]: in test [1] (setting [3]), the pEC50 is 6.00 to 7.00.

The values are drawn from patent publication US11365199B2, “Pyrazole compounds as modulators of FSHR and uses thereof” (Merck Patent GmbH, priority 2013, dated 2022).
